Test results as given in the PolyMetriX glass transition set.

SMILES	glass transition temperature [°C]
*C(=O)Nc1ccc(Oc2ccc(NC(=O)c3ccc4c(c3)C(=O)N(c3ccc(Oc5ccc(N6C(=O)c7ccc(*)cc7C6=O)cc5-c5ccccc5)c(-c5ccccc5)c3)C4=O)cc2)cc1 (repeat unit)	345.00
*CC(*)OC(=O)c1cccc(Br)c1 (repeat unit)	57.50
*C1CC(*)(C#N)C1 (repeat unit)	220.00
*C(=O)Nc1ccc(Oc2ccc(C(C)(C)c3ccc(Oc4ccc(NC(=O)c5ccc(N6C(=O)c7ccc(*)cc7C6=O)cc5)cc4)cc3)cc2)cc1 (repeat unit)	216.00
*Oc1ccc(C2(c3ccc(OC(*)=O)cc3)c3ccccc3-c3ccccc32)cc1 (repeat unit)	355.00
*/C=C(\C#N)C(=O)NC1CCCCC1NC(=O)/C(C#N)=C/c1ccc(/C=C/c2ccc(N(c3ccccc3)c3ccc(N(c4ccccc4)c4ccc(/C=C/c5ccc(*)s5)cc4)cc3)cc2)s1 (repeat unit)	240.00
*C1C(=O)N(c2ccccc2C)C(=O)C1* (repeat unit)	335.00
*c1ccc(Oc2ccc(C(c3ccc(Oc4ccc(N5C(=O)c6ccc7c8c(ccc(c68)C5=O)C(=O)N(*)C7=O)cc4)cc3)(C(F)(F)F)C(F)(F)F)cc2)cc1 (repeat unit)	280.00
*Oc1ccc(C(=O)c2ccccc2)c(-c2cc(Oc3ccc(C(c4ccc(*)cc4)(C(F)(F)F)C(F)(F)F)cc3)ccc2C(=O)c2ccccc2)c1 (repeat unit)	164.00
*Oc1ccc(-c2ccc(Oc3ccc(C(C)(C)c4ccc(*)cc4)cc3)cc2)cc1 (repeat unit)	154.00
*c1ccc(Oc2ccc(C(=O)c3ccc(Oc4ccc(C(=O)c5ccc(Oc6ccc(-c7cc(*)n(-c8ccccc8)n7)cc6)cc5)cc4)cc3)cc2)cc1 (repeat unit)	190.00
*c1ccc2c(c1)C(=O)N(c1cccc(C(=O)Nc3ccc(Oc4ccc(Oc5ccc(NC(=O)c6cccc(N7C(=O)c8ccc(C(*)(C(F)(F)F)C(F)(F)F)cc8C7=O)c6)cc5)cc4)cc3)c1)C2=O (repeat unit)	283.00
*/C=C(/*)C(CCC)[Si](C)(C)c1ccccc1 (repeat unit)	110.00
*Oc1ccc(S(=O)(=O)c2ccc(Oc3ccc(C4(c5ccc(*)c(C)c5)CCCCC4)cc3C)cc2)cc1 (repeat unit)	197.00
*Oc1ccc(NC(=O)c2cc(C(=O)Nc3ccc(*)cc3)cc(C(F)(F)C(F)(F)C(F)(F)C(F)(F)C(F)(F)C(F)(F)C(F)(F)C(F)(F)F)c2)cc1 (repeat unit)	230.00
*CC(*)OCCOc1ccc(/N=N/c2ccc(C#N)cc2)cc1 (repeat unit)	61.00
*CC(C)(C)CS(*)(=O)=O (repeat unit)	108.50
*c1cccc(N2C(=O)c3cccc(Oc4ccc(C(C)(C)c5ccc(Oc6cccc7c6C(=O)N(*)C7=O)cc5)cc4)c3C2=O)c1 (repeat unit)	227.50
*c1ccc(Oc2ccc(C(=O)c3ccc(Oc4ccc(-c5c6c(c(*)c7ccccc57)C(=O)N(c5ccc(Cl)cc5)C6=O)cc4)cc3)cc2)cc1 (repeat unit)	272.00
*C(=O)Nc1cccc2cccc(N3C(=O)CC(N4C(=O)c5ccc(*)cc5C4=O)C3=O)c12 (repeat unit)	193.00
*CCCCCCOc1ccc(/C=C2\CC/C(=C\c3ccc(OCCCCCCOP(=O)(O*)OCC)c(OC)c3)C2=O)cc1OC (repeat unit)	75.00
*C1CC2CC1C(*)C2CCCC (repeat unit)	235.00

SMILES	glass transition temperature [°C]
*C(=O)Nc1ccc(Oc2ccccc2-c2ccccc2Oc2ccc(NC(=O)c3ccc4c(c3)C(=O)N(c3cccc(N5C(=O)c6ccc(*)cc6C5=O)c3)C4=O)cc2)cc1 (repeat unit)	237.00
*O[Si](C)(C)O[Si](C)(C)c1ccc([Si](*)(C)C)cc1 (repeat unit)	-62.50
*CC(*)C(=O)OCC1(CC)COCOC1 (repeat unit)	42.00
*NC1CCC(CCC2CCC(NC(=O)CCCCCCCCCCC(*)=O)CC2)CC1 (repeat unit)	105.00
*Oc1c(Cl)cc(C2(c3cc(Cl)c(OC(*)=O)c(Cl)c3)CCCCC2)cc1Cl (repeat unit)	163.00
*c1ccc([Si](c2ccccc2)(c2ccccc2)c2ccc(-c3nnc(-c4ccc(-c5nnc(*)o5)nc4)o3)cc2)cc1 (repeat unit)	272.00
*c1ccc(Oc2ccc(C(c3ccc(Oc4ccc(N5C(=O)CC(=O)N(*)C5=S)cc4)cc3)(C(F)(F)F)C(F)(F)F)cc2)cc1 (repeat unit)	147.00
*c1cccc(N2C(=O)c3cccc(Oc4ccc(Sc5ccc(Oc6cccc7c6C(=O)N(*)C7=O)cc5)cc4)c3C2=O)c1 (repeat unit)	231.00
*CC(*)c1ccc(COCC(F)(F)C(F)(F)C(F)(F)C(F)(F)F)cc1 (repeat unit)	23.00
*Cc1cc2cc(C(=O)Nc3ccc(NC(=O)c4cc5cc(*)c(OC(=O)COc6ccc7ccc(=O)oc7c6)cc5oc4=O)cc3)c(=O)oc2cc1OC(=O)COc1ccc2ccc(=O)oc2c1 (repeat unit)	252.00
*CCCCCCCCCn1c(=O)c2cc3c(=O)n(*)c(=O)c3cc2c1=O (repeat unit)	110.00
*CC(*)c1ccc(C(=O)N(C)C)cc1 (repeat unit)	125.00
*CCCCCCCCCCOc1ccc(/C=C/c2ccc(OCCCCCCCCCCOP(=O)(O*)OCCCCCCCCCCOc3ccc(/N=N/c4ccccc4)cc3)cc2)cc1 (repeat unit)	55.00
*c1ccc(-c2ccc(-n3c(-c4ccc(Oc5ccc(C(=O)c6ccc(Oc7ccc(C(=O)c8ccc(Oc9ccc(-c%10nc%11ccccc%11n%10*)cc9)cc8)cc7)cc6)cc5)cc4)nc4ccccc43)cc2)cc1 (repeat unit)	243.00
*CC(*)c1ccccc1C(=O)OC(C)C (repeat unit)	146.00
*c1ccc(-c2nc3cc(Oc4ccc(NC(=O)CN5C(=O)c6ccc(C(c7ccc8c(c7)C(=O)N(CC(=O)Nc7ccc(Oc9ccc%10nc(-c%11ccccc%11)c(-c%11ccc(N%12C(=O)c%13ccc%14c%15c(ccc(c%13%15)C%12=O)C(=O)N(*)C%14=O)cc%11)nc%10c9)cc7)C8=O)(C(F)(F)F)C(F)(F)F)cc6C5=O)cc4)ccc3nc2-c2ccccc2)cc1 (repeat unit)	306.00
*N(CCC)[Si](C)(C)C[Si](*)(C)C (repeat unit)	-20.00
*Oc1ccc(C(c2ccc(Oc3c(F)c(F)c(C(=O)c4c(F)c(F)c(*)c(F)c4F)c(F)c3F)cc2)(C(F)(F)F)C(F)(F)F)cc1 (repeat unit)	149.00
*CCCCCSS* (repeat unit)	-72.00
*CCc1ccc(*)c(Cl)c1 (repeat unit)	75.00
*Oc1ccc(C2(c3ccc(OC(=O)c4cccc(C(*)=O)c4)cc3)CCCCC2)cc1 (repeat unit)	127.00

Next, values leading:

glass transition temperature [°C]	SMILES
-50.00	*Nc1ccc(Cc2ccc(NC(=O)NCCCCCCCCCNC(*)=O)cc2)cc1 (repeat unit)
250.00	*c1cccc(NC(=O)c2ccc(OCCOc3ccc(C(=O)Nc4ccc5[nH]c(*)nc5c4)cc3)cc2)c1 (repeat unit)
58.00	*CCCNC(=O)CNC(=O)C(NC(=O)C(Cc1ccccc1)NC(=O)CCCCCCCCC(=O)NC(Cc1ccccc1)C(=O)NC(C(=O)NCC(=O)NCCCOCCOCCO*)C(C)C)C(C)C (repeat unit)
72.00	*CCCNC(=O)c1ccc(C(=O)NCCCO*)cc1 (repeat unit)
150.00	*Oc1ccc(C(C)(C)c2ccc(OC(=O)C3CCC(C(*)=O)CC3)cc2)cc1 (repeat unit)
60.00	*CC#C/C(C#CCOC(=O)CCCCCCCCC(=O)O*)=C\c1ccc(C#Cc2ccccc2)cc1 (repeat unit)
45.00	*CCCCCCCCCCCCOC(=O)NCc1ccc(CNC(=O)O*)cc1 (repeat unit)
168.00	*Oc1ccc2ccc(Oc3ccc(C(=O)Nc4cccc(NC(=O)c5ccc(*)cc5)c4)cc3)cc2c1 (repeat unit)
165.00	*c1ccc(-c2nnc(*)o2)c(OCCCCCCCCCC)c1 (repeat unit)
54.00	*CC(*)(C)C(=O)OCCCCCCCCCCOc1ccc(/N=N/c2ccc(Cl)cc2)cc1 (repeat unit)
202.00	*Oc1ccc(C(C)(c2ccccc2)c2ccc(OC(=O)c3cccc(C(*)=O)c3)cc2)cc1 (repeat unit)
103.60	*CC(*)c1cc(C(=O)Oc2ccc(OCCCC)cc2)ccc1C(=O)Oc1ccc(OCCCC)cc1 (repeat unit)
-23.00	*CC(*)c1ccc(COCC(CC)CCCC)cc1 (repeat unit)
273.00	*Oc1ccc(NC(=O)c2cc(NC(=O)c3ccc(OC(C)=O)cc3)cc(C(=O)Nc3ccc(*)cc3)c2)cc1 (repeat unit)
10.00	*CC(*)(C)C(=O)OCCCCCCCCCCCOc1ccc2cc(C(=O)Oc3ccccc3)ccc2c1 (repeat unit)
115.00	*Cc1ccc(CNC(=O)CCCCCCCCC(=O)N*)cc1 (repeat unit)
36.00	*CCCCCCOc1ccc(C(C)(C)c2ccc(O*)cc2)cc1 (repeat unit)
65.00	*CCC(C)(C)CC(C)CNC(=O)CCCCC(=O)N* (repeat unit)
148.00	*Oc1cc2ccccc2cc1OC(=O)c1ccc(Oc2ccc(C(*)=O)cc2)cc1 (repeat unit)
151.00	*Oc1ccc(C2(c3ccc(OC(=O)CCCCCCCCC(*)=O)cc3)c3ccccc3-c3ccccc32)cc1 (repeat unit)
158.00	*CCCCCCN1C(=O)C(=O)N(c2ccc(Cc3ccc(N4C(=O)C(=O)N(*)C4=O)cc3)cc2)C1=O (repeat unit)
284.10	*Nc1ccc(C(c2ccc(NC(=O)c3cc(C(*)=O)cc(C(C)(C)C)c3)cc2)(C(F)(F)F)C(F)(F)F)cc1 (repeat unit)
